Read-outs that look alike come from different tables or passages of the source.
Assays:
hGIPR = target: T1, hGIPR (Homo sapiens, UniProt P48546); experiment: Functional cAMP formation (HTRF) in HEK-293 clonal cells expressing hGIPR, 0.1% bovine casein, without or with 1.0% human serum albumin; type: cell-based; details: 37° C.; for Emax: HEK293, cAMP, percent of maximal response to GIP(1-42)NH2, read-out: hGIPR Emax, % ± SEM; for EC50: cAMP, read-out: hGIPR EC50, nM (SEM, n)
T1 construct: expressed in transfected cells
T1 sequence (P48546 22-466): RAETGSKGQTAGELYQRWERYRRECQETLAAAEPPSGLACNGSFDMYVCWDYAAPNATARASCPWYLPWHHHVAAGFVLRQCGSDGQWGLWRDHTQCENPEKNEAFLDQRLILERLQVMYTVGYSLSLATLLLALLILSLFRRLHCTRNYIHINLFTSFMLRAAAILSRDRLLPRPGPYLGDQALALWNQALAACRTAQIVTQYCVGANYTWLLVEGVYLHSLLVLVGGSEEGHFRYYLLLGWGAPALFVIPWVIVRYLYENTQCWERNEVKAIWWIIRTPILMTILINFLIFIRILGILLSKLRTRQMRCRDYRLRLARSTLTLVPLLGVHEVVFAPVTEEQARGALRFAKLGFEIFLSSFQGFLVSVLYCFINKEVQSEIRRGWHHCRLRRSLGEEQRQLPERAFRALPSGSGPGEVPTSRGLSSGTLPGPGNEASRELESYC
Method in brief: (§1)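 Readings of the HTRF 665/620 nm ratio, which falls as cAMP rises, were converted to nM cAMP using a standard curve after 30 min peptide exposure at 37° C.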

[1] = target: T2, human GLP-1 receptor (hGLP-1R) (Homo sapiens, UniProt P43220); experiment: [125I]-GLP-1 binding, SPA with membranes of HEK293 cells expressing hGLP-1R; details: human GLP-1R; geometric mean (SEM, n); read-out: Binding Affinity Ki, nM (SEM, n) hGLP-1R
T2 construct: expressed in transfected cells; crude membranes
T2 sequence (P43220 24-463): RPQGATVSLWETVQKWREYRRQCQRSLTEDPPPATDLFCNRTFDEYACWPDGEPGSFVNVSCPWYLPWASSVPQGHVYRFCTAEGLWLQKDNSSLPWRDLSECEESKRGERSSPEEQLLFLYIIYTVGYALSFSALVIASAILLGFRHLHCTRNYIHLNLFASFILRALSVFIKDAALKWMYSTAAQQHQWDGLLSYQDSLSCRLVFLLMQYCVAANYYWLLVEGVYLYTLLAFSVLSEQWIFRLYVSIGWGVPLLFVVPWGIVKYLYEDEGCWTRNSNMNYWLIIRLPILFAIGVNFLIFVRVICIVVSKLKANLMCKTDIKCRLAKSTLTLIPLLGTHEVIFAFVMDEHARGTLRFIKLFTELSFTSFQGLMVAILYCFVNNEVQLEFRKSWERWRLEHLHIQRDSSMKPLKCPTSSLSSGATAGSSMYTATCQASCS

[2] = target: T3, human GIP receptor (hGIPR) (Homo sapiens, UniProt P48546); experiment: [125I]-GIP binding, SPA with membranes of CHO cells expressing hGIPR; details: human GIPR; geometric mean (SEM, n); read-out: Binding Affinity Ki, nM (SEM, n) hGIPR
T3 construct: expressed in transfected cells; crude membranes
T3 sequence (P48546 22-466): T1 sequence (P48546 22-466)

hGLP-1R = hGLP-1R (Homo sapiens, UniProt P43220); experiment: Functional cAMP formation (HTRF) in HEK-293 clonal cells expressing hGLP-1R, 0.1% bovine casein, without or with 1.0% human serum albumin; type: cell-based; design: expressed in transfected cells; details: 37° C.; for EC50: cAMP, read-out: hGLP-1R EC50, nM (SEM, n); for Emax: HEK293, cAMP, percent of maximal response to GLP-1(7-36)NH2, read-out: hGLP-1R Emax, % ± SEM
Chain of hGLP-1R (P43220 24-463): as above
Method in brief: as §1

hGCGR = target: T4, hGCGR (Homo sapiens, UniProt P47871); experiment: Functional cAMP formation (HTRF) in HEK-293 clonal cells expressing hGCGR, 0.1% bovine casein, without or with 1.0% human serum albumin; type: cell-based; details: cAMP, 37° C., read-out: hGCGR EC50, nM (SEM, n)
T4 construct: expressed in transfected cells
T4 sequence (P47871 26-477): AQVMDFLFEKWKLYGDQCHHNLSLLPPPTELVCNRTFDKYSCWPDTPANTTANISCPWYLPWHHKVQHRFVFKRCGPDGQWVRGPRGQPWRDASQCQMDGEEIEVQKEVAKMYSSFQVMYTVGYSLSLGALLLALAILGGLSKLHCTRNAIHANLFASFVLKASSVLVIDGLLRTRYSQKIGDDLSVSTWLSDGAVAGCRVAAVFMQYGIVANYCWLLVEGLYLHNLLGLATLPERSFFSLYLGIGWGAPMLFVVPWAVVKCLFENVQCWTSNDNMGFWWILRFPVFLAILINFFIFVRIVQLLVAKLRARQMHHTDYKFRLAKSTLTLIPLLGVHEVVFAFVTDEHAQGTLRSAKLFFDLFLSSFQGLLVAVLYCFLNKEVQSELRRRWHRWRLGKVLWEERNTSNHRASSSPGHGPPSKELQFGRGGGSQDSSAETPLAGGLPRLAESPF
Method in brief: as §1

[3] = 0.1% bovine casein and 1.0% human serum albumin
[4] = 0.1% bovine casein (no human serum albumin), geometric mean
[5] = 0.1% bovine casein and 1.0% human serum albumin, geometric mean (SEM, n)
[6] = 0.1% bovine casein, arithmetic mean

SMILES	Emax (hGIPR; [3])	EC50 (hGIPR; [4])	EC50 (hGIPR; [5])	Ki [1]	Ki [2]	EC50 (hGLP-1R; [4])	EC50 (hGCGR; [4])	EC50 (hGCGR; [5])	Emax (hGLP-1R; [6])	EC50 (hGLP-1R; [5])	Emax (hGLP-1R; [3])
CCCCCCCCCCCC(=O)N[C@@H](CCC(=O)NCCOCCOCC(=O)NCCOCCOCC(=O)NCCCC[C@H](NC(=O)[C@H](CCCN)NC(=O)[C@H](CC(=O)O)NC(=O)[C@H](CC(C)C)NC(=O)[C@](C)(CC(C)C)NC(=O)[C@@H](NC(=O)C(C)(C)NC(=O)[C@H](Cc1ccncc1)NC(=O)[C@H](CC(=O)O)NC(=O)[C@H](CO)NC(=O)[C@@H](NC(=O)[C@](C)(Cc1ccccc1F)NC(=O)[C@@H](NC(=O)CNC(=O)[C@H](CCC(=O)O)NC(=O)C(C)(C)NC(=O)[C@@H](N)Cc1ccc(O)cc1)[C@@H](C)O)[C@@H](C)O)[C@@H](C)CC)C(=O)N[C@@H](C)C(=O)N[C@@H](CCC(N)=O)C(=O)NC(C)(C)C(=O)N[C@@H](CCCN)C(=O)N[C@@H](Cc1ccccc1)C(=O)N[C@H](C(=O)N[C@H](CCC(=O)O)C(=O)N[C@@](C)(Cc1ccc(O)cc1)C(=O)N[C@@H](CC(C)C)C(=O)N[C@H](C(=O)N[C@@H](CCCCNC(=O)COCCOCCNC(=O)COCCOCCNC(=O)CC[C@H](NC(=O)CCCCCCCCCCC)C(=O)O)C(=O)NCC(=O)NCC(=O)N1CCC[C@H]1C(=O)N[C@@H](CO)C(=O)N[C@@H](CO)C(=O)NCC(=O)N[C@@H](C)C(=O)N1CCC[C@H]1C(=O)N1CCC[C@H]1C(=O)N1CCC[C@H]1C(=O)N[C@@H](CO)C(N)=O)[C@@H](C)CC)[C@@H](C)CC)C(=O)O [Example 414]	92.2%	0.00961 nM	0.274 nM	0.194 nM	0.0229 nM	0.119 nM	> 9950 nM	> 9950 nM	–	–	–
CCCCCCCCCCCC(=O)N[C@@H](CCC(=O)NCCOCCOCC(=O)NCCOCCOCC(=O)NCCCC[C@H](NC(=O)[C@H](CCCN)NC(=O)[C@H](CC(=O)O)NC(=O)[C@H](CC(C)C)NC(=O)[C@](C)(CC(C)C)NC(=O)[C@@H](NC(=O)C(C)(C)NC(=O)[C@H](CCCCNC(=O)COCCOCCNC(=O)COCCOCCNC(=O)CC[C@H](NC(=O)CCCCCCCCCCC)C(=O)O)NC(=O)[C@H](CC(=O)O)NC(=O)[C@H](CO)NC(=O)[C@@H](NC(=O)[C@](C)(Cc1ccccc1F)NC(=O)[C@@H](NC(=O)CNC(=O)[C@H](CCC(=O)O)NC(=O)C(C)(C)NC(=O)[C@@H](N)Cc1ccc(O)cc1)[C@@H](C)O)[C@@H](C)O)[C@@H](C)CC)C(=O)N[C@@H](C)C(=O)N[C@@H](CCC(N)=O)C(=O)NC(C)(C)C(=O)N[C@@H](Cc1ccncc1)C(=O)N[C@@H](Cc1ccccc1)C(=O)N[C@H](C(=O)N[C@H](CCC(=O)O)C(=O)N[C@@](C)(Cc1ccc(O)cc1)C(=O)N[C@@H](CC(C)C)C(=O)N[C@H](C(=O)N[C@@H](CCC(=O)O)C(=O)NCC(=O)NCC(=O)N1CCC[C@H]1C(=O)N[C@@H](CO)C(=O)N[C@@H](CO)C(=O)NCC(=O)N[C@@H](C)C(=O)N1CCC[C@H]1C(=O)N1CCC[C@H]1C(=O)N1CCC[C@H]1C(=O)N[C@@H](CO)C(N)=O)[C@@H](C)CC)[C@@H](C)CC)C(=O)O [Example 415]	93.9%	0.00991 nM	–	0.156 nM	0.0152 nM	0.122 nM	> 9950 nM	> 9950 nM	109%	–	–
CCCCCCCCCCCC(=O)N[C@@H](CCC(=O)NCCOCCOCC(=O)NCCOCCOCC(=O)NCCCC[C@H](NC(=O)[C@H](CCCN)NC(=O)[C@H](CC(=O)O)NC(=O)[C@H](CC(C)C)NC(=O)[C@](C)(CC(C)C)NC(=O)[C@@H](NC(=O)C(C)(C)NC(=O)[C@H](CCCCNC(=O)COCCOCCNC(=O)COCCOCCNC(=O)CC[C@H](NC(=O)CCCCCCCCCCC)C(=O)O)NC(=O)[C@H](CC(=O)O)NC(=O)[C@H](CO)NC(=O)[C@@H](NC(=O)[C@](C)(Cc1ccccc1F)NC(=O)[C@@H](NC(=O)CNC(=O)[C@H](CCC(=O)O)NC(=O)C(C)(C)NC(=O)[C@@H](N)Cc1ccc(O)cc1)[C@@H](C)O)[C@@H](C)O)[C@@H](C)CC)C(=O)N[C@@H](C)C(=O)N[C@@H](CCC(N)=O)C(=O)NC(C)(C)C(=O)N[C@@H](CCCN)C(=O)N[C@@H](Cc1ccccc1)C(=O)N[C@H](C(=O)N[C@H](CCC(=O)O)C(=O)N[C@@](C)(Cc1ccc(O)cc1)C(=O)N[C@@H](CC(C)C)C(=O)N[C@H](C(=O)N[C@@H](CCC(=O)O)C(=O)NCC(=O)NCC(=O)N1CCC[C@H]1C(=O)N[C@@H](CO)C(=O)N[C@@H](CO)C(=O)NCC(=O)N[C@@H](C)C(=O)N1CCC[C@H]1C(=O)N1CCC[C@H]1C(=O)N1CCC[C@H]1C(=O)N[C@@H](CO)C(N)=O)[C@@H](C)CC)[C@@H](C)CC)C(=O)O [Example 417]	96.4%	0.00651 nM	–	0.167 nM	0.0214 nM	0.0675 nM	> 9950 nM	> 9950 nM	109%	2.66 nM	–
CCCCCCCCCCCC(=O)N[C@@H](CCC(=O)NCCOCCOCC(=O)NCCOCCOCC(=O)NCCCC[C@H](NC(=O)[C@H](CCCN)NC(=O)[C@H](CC(=O)O)NC(=O)[C@H](CC(C)C)NC(=O)[C@](C)(CC(C)C)NC(=O)[C@@H](NC(=O)C(C)(C)NC(=O)[C@H](Cc1ccncc1)NC(=O)[C@H](CC(=O)O)NC(=O)[C@H](CO)NC(=O)[C@@H](NC(=O)[C@](C)(Cc1ccccc1F)NC(=O)[C@@H](NC(=O)CNC(=O)[C@H](CCC(=O)O)NC(=O)C(C)(C)NC(=O)[C@@H](N)Cc1ccc(O)cc1)[C@@H](C)O)[C@@H](C)O)[C@@H](C)CC)C(=O)N[C@@H](C)C(=O)N[C@@H](CCC(N)=O)C(=O)NC(C)(C)C(=O)N[C@H](C(=O)N[C@@H](Cc1ccccc1)C(=O)N[C@H](C(=O)N[C@H](CCC(=O)O)C(=O)N[C@@](C)(Cc1ccc(O)cc1)C(=O)N[C@@H](CC(C)C)C(=O)N[C@H](C(=O)N[C@@H](CCCCNC(=O)COCCOCCNC(=O)COCCOCCNC(=O)CC[C@H](NC(=O)CCCCCCCCCCC)C(=O)O)C(=O)NCC(=O)NCC(=O)N1CCC[C@H]1C(=O)N[C@@H](CO)C(=O)N[C@@H](CO)C(=O)NCC(=O)N[C@@H](C)C(=O)N1CCC[C@H]1C(=O)N1CCC[C@H]1C(=O)N1CCC[C@H]1C(=O)N[C@@H](CO)C(N)=O)[C@@H](C)CC)[C@@H](C)CC)[C@@H](C)O)C(=O)O [Example 419]	88.2%	0.00958 nM	0.44 nM	0.265 nM	0.0166 nM	0.132 nM	> 9950 nM	> 9950 nM	113%	–	97.3%
CCCCCCCCCCCC(=O)N[C@@H](CCC(=O)NCCOCCOCC(=O)NCCOCCOCC(=O)NCCOCCOCC(=O)NCCCC[C@H](NC(=O)[C@H](CCCN)NC(=O)[C@H](CC(=O)O)NC(=O)[C@H](CC(C)C)NC(=O)[C@](C)(CC(C)C)NC(=O)[C@@H](NC(=O)C(C)(C)NC(=O)[C@H](Cc1ccncc1)NC(=O)[C@H](CC(=O)O)NC(=O)[C@H](CO)NC(=O)[C@@H](NC(=O)[C@](C)(Cc1ccccc1F)NC(=O)[C@@H](NC(=O)CNC(=O)[C@H](CCC(=O)O)NC(=O)C(C)(C)NC(=O)[C@@H](N)Cc1ccc(O)cc1)[C@@H](C)O)[C@@H](C)O)[C@@H](C)CC)C(=O)N[C@@H](C)C(=O)N[C@@H](CCC(N)=O)C(=O)NC(C)(C)C(=O)N[C@@H](CCCCNC(=O)COCCOCCNC(=O)COCCOCCNC(=O)COCCOCCNC(=O)CC[C@H](NC(=O)CCCCCCCCCCC)C(=O)O)C(=O)N[C@@H](Cc1ccccc1)C(=O)N[C@H](C(=O)N[C@H](CCC(=O)O)C(=O)N[C@@](C)(Cc1ccc(O)cc1)C(=O)N[C@@H](CC(C)C)C(=O)N[C@H](C(=O)N[C@@H](CCC(=O)O)C(=O)NCC(=O)NCC(=O)N1CCC[C@H]1C(=O)N[C@@H](CO)C(=O)N[C@@H](CO)C(=O)NCC(=O)N[C@@H](C)C(=O)N1CCC[C@H]1C(=O)N1CCC[C@H]1C(=O)N1CCC[C@H]1C(=O)N[C@@H](CO)C(N)=O)[C@@H](C)CC)[C@@H](C)CC)C(=O)O [Example 422]	97.5%	0.00655 nM	–	0.194 nM	0.0218 nM	0.0729 nM	> 9950 nM	> 9950 nM	–	–	–
